One assay concerns Enterococcus faecium. The assay is described as follows: Antimicrobial susceptibility by disk diffusion (EUCAST). Format: cell-based. The method, then:
(§1) The antimicrobial susceptibility of the four ESKAPE bacteria Acinetobacter baumannii, Enterococcus faecium, P. aeruginosa, and S. aureus, made available by the culture collection of IZSM, was evaluated by the disk diffusion method. Antimicrobials used were different and specific per each bacterium under study. […] Thereby, the diameter of the inhibition zones was measured, and bacteria were classified as resistant or sensitive per antibiotic tested in agreement with the European Committee for Antimicrobial Susceptibility Testing (EUCAST, 2025) breakpoints.

Assay [1] has as its system Staphylococcus aureus (MRSA). The assay is described as above. Format: cell-based. The method, then: as §1

As to `CC1(C)S[C@@H]2[C@H](NC(=O)[C@H](N)c3ccccc3)C(=O)N2[C@H]1C(=O)O` [Ampicillin], the “Susceptibility of the strain, in words” value in the assay with Enterococcus faecium is recorded as “resistant”.
`CO[C@@]1(NC(=O)Cc2cccs2)C(=O)N2C(C(=O)O)=C(COC(N)=O)CS[C@@H]21` [Cefoxitin]: in assay [1], the “Susceptibility of the strain, in words” value is given as “important resistance was detected”.
For `O=C(O)c1cn(C2CC2)c2cc(N3CCNCC3)c(F)cc2c1=O` [Ciprofloxacin], the figures for the “Susceptibility of the strain, in words” value (in the assay with Enterococcus faecium; in assay [1]) were “resistant” and “important resistance was detected”, respectively.
As for `CC[C@H]1OC(=O)[C@H](C)[C@@H](O[C@H]2C[C@@](C)(OC)[C@@H](O)[C@H](C)O2)[C@H](C)[C@@H](O[C@@H]2O[C@H](C)C[C@H](N(C)C)[C@H]2O)[C@](C)(O)C[C@@H](C)C(=O)[C@H](C)[C@@H](O)[C@]1(C)O` [Erythromycin], the “Susceptibility of the strain, in words” value in assay [1] is given as “important resistance was detected”.
Take `C[C@H]1COc2c(N3CCN(C)CC3)c(F)cc3c(=O)c(C(=O)O)cn1c23` [Levofloxacin]: the “Susceptibility of the strain, in words” value in the assay with Enterococcus faecium is given as “resistant”; in assay [1], “important resistance was detected”.
Take `CN[C@H](CC(C)C)C(=O)N[C@H]1C(=O)N[C@@H](CC(N)=O)C(=O)N[C@H]2C(=O)N[C@H]3C(=O)N[C@H](C(=O)N[C@H](C(=O)O)c4cc(O)cc(O)c4-c4cc3ccc4O)[C@H](O)c3ccc(c(Cl)c3)Oc3cc2cc(c3O[C@@H]2O[C@H](CO)[C@@H](O)[C@H](O)[C@H]2O[C@H]2C[C@](C)(N)[C@H](O)[C@H](C)O2)Oc2ccc(cc2Cl)[C@H]1O` [Vancomycin]: in the assay with Enterococcus faecium, the “Susceptibility of the strain, in words” value is listed as “resistant”.

The record behind these values is article PMC12292521, “Discovery of a Potent Antimicrobial Peptide Through Rational Design: A New Frontier in Pathogen Control” (Biomolecules, 2025).
